Assay results published in patent US20120270237A9, “METHODS FOR THE IDENTIFICATION OF KINASE INTERACTING MOLECULES AND FOR THE PURIFICATION OF KINASE PROTEINS” (Cellzone AG, priority 2009, published 2012).

Key:
Assay in all cases: Kinobeads competition binding, HL60 cell lysate
Settings in all cases: 10 μM free compound
ACK = biological target: T1, ACK (Homo sapiens, UniProt Q07912)
T1 construct: endogenous in cells; host or cells: HL60 cells
Experimental: (§1) To one aliquot of cell lysate 10 μM of the free compound (FIG. 3, CZC31326) was added and allowed to bind to proteins in the lysate. Then the affinity matrix with the immobilized compound (Example 1) was added to capture proteins that were not interacting with the previously added free compound. Beads were separated from the lysate and bead bound proteins were eluted in SDS sample buffer and subsequently separated by SDS-Polyacrylamide gel electrophoresis (FIG. 4). Suitable gel bands were cut out and subjected to in-gel proteolytic digestion with trypsin. The second lysate aliquot was processed identically, however no free compound was added (DMSO solvent control). Peptides originating from samples 1 and 2 were labeled with iTRAQ reagents (iTRAQ 114 and iTRAQ 117) and the combined samples were analyzed with a nano-flow liquid chromatography system coupled online to a tandem mass spectrometer (LC-MS/MS) experiment followed by iTRAQ reporter ion quantification in the MS/MS spectra (Ross et al., 2004. Mol. Cell. Proteomics 3(12):1154-1169). Further experimental protocols can be found in WO2006/134056 and a previous publication (Bantscheff et al., 2007. Nature Biotechnology 25, 1035-1044). Sepharose-beads with the immobilized compound (100 μl beads per pull-down experiment) were equilibrated in lysis buffer and incubated with a cell lysate sample containing 50 mg of protein on an end-over-end shaker (Roto Shake Genie, Scientific Industries Inc.) for 2 hours at 4° C. Beads were collected, transferred to Mobicol-columns (MoBiTech 10055) and washed with 10 ml lysis buffer containing 0.4% NP40 detergent, followed by 5 ml lysis buffer containing 0.2% detergent. To elute bound proteins, 60 μl 2×SDS sample buffer was added to the column. The column was incubated for 30 minutes at 50° C. and the eluate was transferred to a siliconized microfuge tube by centrifugation. Proteins were then alkylated with 108 mM iodoacetamid. Proteins were then separated by SDS-Polyacrylamide electrophoresis (SDS-PAGE). The peptide extracts of samples treated with 10 μM of free compound (CZC31326) and the solvent control (0.5% DMSO) were treated with different variants of the isobaric tagging reagent (iTRAQ Reagents Multiplex Kit, part number 4352135, Applied Biosystems, Foster City, Calif., USA). The iTRAQ reagents are a set of multiplexed, amine-specific, stable isotope reagents that can label peptides on amino groups in up to four different biological samples enabling simultaneous identification and quantitation of peptides. The iTRAQ reagents were used according to instructions provided by the manufacturer. The samples were resuspended in 10 μl 50 mM TEAB solution, pH 8.5 and 10 μl ethanol were added. The iTRAQ reagent was dissolved in 120 μl ethanol and 10 μl of reagent solution were added to the sample. The labeling reaction was performed at room temperature for one hour on a horizontal shaker and stopped by adding 5 μl of 100 mM TEAB and 100 mM glycine in water. The two labeled sampled were then combined, dried in a vacuum centrifuge and resuspended in 10 μl of 0.1% formic acid in water. Relative protein quantitation was performed using peak areas of iTRAQ reporter ion signals essentially as described in an earlier publication (Bantscheff et al., 2007. Nature Biotechnology 25, 1035-1044).

CSK = biological target: T2, CSK (Homo sapiens, UniProt P41240)
T2 construct: endogenous in cells; host or cells: HL60 (DSMZ ACC3)
T2 sequence (P41240 whole entry): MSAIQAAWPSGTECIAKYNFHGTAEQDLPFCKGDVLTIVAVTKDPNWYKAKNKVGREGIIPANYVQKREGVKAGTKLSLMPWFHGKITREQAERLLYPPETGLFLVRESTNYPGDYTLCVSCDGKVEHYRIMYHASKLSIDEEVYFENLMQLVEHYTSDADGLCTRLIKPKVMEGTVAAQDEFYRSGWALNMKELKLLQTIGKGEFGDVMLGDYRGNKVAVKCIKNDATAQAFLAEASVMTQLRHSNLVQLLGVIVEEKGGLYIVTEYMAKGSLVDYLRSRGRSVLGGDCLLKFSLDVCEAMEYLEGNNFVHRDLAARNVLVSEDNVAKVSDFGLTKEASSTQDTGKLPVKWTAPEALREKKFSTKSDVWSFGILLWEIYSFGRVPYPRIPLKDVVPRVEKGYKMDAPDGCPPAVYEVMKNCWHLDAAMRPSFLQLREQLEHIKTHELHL
Experimental: as §1

HIPK1 = biological target: T3, HIPK1 (Homo sapiens, UniProt Q86Z02)
T3 construct: endogenous in cells; host or cells: HL60
T3 sequence (Q86Z02 whole entry): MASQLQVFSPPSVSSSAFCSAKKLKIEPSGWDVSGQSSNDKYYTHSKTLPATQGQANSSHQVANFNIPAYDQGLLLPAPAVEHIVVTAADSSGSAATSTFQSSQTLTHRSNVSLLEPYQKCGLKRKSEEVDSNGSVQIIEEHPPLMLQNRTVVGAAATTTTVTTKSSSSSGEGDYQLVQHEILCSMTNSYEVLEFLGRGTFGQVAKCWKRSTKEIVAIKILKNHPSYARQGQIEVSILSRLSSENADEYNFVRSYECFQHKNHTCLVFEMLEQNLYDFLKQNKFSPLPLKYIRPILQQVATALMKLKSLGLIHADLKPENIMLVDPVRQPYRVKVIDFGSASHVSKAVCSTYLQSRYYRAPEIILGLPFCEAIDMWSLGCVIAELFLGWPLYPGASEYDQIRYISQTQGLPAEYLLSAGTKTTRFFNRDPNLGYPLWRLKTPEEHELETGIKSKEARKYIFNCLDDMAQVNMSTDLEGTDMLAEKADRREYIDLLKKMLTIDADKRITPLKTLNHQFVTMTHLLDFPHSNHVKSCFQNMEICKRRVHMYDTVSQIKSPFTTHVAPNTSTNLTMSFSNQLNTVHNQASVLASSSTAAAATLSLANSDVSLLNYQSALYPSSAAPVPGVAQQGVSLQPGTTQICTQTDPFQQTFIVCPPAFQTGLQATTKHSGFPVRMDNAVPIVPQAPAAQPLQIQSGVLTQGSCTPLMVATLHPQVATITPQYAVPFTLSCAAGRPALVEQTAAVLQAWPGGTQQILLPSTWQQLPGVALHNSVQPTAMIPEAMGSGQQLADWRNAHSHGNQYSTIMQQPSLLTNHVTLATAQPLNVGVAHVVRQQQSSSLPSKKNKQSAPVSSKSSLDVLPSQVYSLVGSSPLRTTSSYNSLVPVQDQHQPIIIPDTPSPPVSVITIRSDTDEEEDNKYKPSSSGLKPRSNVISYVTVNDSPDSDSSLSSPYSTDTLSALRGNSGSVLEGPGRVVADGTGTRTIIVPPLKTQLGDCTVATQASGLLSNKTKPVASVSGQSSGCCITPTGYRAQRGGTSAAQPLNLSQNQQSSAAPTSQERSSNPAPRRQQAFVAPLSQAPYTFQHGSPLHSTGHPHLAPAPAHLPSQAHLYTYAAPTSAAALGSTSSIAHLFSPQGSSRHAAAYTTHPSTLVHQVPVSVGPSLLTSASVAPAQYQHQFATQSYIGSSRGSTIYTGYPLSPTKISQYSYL
Experimental: as §1

MAP2K5 = biological target: T4, MAP2K5 (Homo sapiens, UniProt Q13163)
T4 sequence (Q13163 1-448): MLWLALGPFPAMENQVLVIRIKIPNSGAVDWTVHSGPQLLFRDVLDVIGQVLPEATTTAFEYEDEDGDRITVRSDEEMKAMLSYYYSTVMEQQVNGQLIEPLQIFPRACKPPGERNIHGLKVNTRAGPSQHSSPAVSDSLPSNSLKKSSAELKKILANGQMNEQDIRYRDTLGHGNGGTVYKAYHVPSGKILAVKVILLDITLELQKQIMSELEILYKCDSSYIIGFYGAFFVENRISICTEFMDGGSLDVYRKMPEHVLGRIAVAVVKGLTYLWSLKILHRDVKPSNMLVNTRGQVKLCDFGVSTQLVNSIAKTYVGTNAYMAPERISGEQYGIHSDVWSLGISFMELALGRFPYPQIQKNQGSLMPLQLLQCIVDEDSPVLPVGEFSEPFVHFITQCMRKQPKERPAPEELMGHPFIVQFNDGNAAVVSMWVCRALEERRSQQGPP
Experimental: as §1

MSK1 = biological target: T5, MSK1 (Homo sapiens, UniProt O75582)
T5 construct: endogenous in cells; host or cells: HL60
T5 sequence (O75582 whole entry): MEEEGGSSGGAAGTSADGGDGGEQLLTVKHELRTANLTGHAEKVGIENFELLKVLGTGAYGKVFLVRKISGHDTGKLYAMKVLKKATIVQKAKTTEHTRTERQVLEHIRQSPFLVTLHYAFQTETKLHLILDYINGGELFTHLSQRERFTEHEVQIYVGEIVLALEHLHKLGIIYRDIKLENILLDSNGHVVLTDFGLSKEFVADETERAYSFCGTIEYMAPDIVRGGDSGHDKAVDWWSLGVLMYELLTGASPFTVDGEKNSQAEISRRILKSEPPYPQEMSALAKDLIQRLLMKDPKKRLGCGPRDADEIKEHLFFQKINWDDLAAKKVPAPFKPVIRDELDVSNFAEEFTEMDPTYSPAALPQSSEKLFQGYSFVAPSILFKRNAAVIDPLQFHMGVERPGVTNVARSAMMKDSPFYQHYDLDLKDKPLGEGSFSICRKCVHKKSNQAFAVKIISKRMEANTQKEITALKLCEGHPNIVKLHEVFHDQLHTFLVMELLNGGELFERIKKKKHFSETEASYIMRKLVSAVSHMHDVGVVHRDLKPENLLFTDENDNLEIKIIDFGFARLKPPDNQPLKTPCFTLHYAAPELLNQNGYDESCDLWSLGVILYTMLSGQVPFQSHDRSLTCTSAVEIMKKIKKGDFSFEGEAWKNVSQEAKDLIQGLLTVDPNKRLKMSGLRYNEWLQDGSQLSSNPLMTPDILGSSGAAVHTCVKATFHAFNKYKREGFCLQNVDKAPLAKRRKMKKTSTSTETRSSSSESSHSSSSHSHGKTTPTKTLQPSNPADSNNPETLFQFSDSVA
Experimental: as §1

RET = biological target: T6, RET (Homo sapiens, UniProt P07949)
T6 construct: endogenous in cells; host or cells: HL60 cells
T6 sequence (P07949 29-1114): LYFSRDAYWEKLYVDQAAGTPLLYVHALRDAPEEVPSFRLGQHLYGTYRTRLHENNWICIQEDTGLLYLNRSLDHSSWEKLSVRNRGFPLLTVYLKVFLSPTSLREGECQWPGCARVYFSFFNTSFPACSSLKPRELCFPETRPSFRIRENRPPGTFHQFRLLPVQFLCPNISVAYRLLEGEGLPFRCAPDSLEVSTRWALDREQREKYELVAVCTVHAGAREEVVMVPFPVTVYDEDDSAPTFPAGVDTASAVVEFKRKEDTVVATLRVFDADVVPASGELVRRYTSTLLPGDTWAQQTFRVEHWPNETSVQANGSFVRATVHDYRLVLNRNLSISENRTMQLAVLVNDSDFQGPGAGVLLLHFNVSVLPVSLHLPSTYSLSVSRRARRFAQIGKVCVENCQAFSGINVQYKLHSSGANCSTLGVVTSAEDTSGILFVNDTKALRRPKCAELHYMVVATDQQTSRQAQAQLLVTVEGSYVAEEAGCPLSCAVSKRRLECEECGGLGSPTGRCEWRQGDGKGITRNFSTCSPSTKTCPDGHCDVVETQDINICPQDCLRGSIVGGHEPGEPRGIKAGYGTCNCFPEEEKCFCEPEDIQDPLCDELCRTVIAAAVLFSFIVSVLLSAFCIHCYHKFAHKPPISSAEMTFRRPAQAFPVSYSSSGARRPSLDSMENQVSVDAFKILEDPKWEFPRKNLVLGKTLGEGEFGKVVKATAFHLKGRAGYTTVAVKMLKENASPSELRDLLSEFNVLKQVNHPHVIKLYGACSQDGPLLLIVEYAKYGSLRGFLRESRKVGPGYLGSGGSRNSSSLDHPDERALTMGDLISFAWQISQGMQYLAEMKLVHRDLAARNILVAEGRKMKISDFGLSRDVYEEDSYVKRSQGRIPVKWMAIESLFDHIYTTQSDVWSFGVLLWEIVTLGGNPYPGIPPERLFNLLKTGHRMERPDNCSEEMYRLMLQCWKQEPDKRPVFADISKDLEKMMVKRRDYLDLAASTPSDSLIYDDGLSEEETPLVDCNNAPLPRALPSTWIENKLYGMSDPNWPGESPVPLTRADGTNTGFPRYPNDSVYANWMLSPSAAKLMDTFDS
Experimental: as §1

T1 sequence (Q07912 whole entry): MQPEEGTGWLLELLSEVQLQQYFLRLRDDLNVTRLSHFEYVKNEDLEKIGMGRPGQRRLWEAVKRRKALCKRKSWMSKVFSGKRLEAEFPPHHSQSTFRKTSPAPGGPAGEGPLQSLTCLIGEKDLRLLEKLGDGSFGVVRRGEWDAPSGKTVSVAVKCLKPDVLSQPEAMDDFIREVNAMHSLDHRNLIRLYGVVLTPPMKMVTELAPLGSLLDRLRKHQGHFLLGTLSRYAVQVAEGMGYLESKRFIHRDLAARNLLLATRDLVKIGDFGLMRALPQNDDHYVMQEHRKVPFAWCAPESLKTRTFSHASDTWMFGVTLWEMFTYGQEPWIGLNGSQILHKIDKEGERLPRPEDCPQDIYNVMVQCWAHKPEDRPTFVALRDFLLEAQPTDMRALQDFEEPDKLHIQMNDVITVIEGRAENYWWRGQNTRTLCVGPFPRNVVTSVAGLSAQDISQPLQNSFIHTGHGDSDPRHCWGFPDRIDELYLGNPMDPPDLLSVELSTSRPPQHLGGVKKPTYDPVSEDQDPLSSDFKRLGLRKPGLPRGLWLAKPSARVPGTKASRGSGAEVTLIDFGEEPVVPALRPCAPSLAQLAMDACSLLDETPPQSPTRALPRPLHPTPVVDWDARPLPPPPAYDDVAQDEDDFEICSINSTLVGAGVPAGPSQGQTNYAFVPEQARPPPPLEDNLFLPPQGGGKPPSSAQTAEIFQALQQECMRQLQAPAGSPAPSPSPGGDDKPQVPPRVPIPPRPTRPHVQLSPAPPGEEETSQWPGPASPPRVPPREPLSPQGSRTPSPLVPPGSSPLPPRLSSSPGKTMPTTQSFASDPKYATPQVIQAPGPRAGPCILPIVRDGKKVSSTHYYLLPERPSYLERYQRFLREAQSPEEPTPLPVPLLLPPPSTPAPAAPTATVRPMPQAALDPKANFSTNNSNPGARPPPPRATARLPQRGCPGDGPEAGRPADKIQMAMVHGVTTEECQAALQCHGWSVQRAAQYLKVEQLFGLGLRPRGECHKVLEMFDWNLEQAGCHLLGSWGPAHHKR

CS(=O)(=O)Nc1ccccc1Nc1nc(Nc2cccc(OCCN)c2)ncc1Cl [CZC31326, N-(2-(2-(3-(2-aminoethoxy)phenylamino)-5-chloropyrimidin-4-ylamino)phenyl)methanesulfonamide]
inhibition at 10 µM (ACK): 93.6%
Competition % (CSK): 80.3%
inhibition at 10 µM (HIPK1): 97.1%
inhibition at 10 µM (MAP2K5): 93.1%
inhibition at 10 µM (MSK1): 94.7%
inhibition at 10 µM (RET): 97.1%
